According to patent EP2377876A1, “Use of proteins and peptides of the TGF-BETA superfamily for purification and therapeutic methods” (Wyeth LLC, priority 2006, dated 2011):
No end group written: not given here.

Tests used:
[1] = tested on: BMP-12; assay: Binding of BMP-12 to peptide-coupled affinity resins in 96 well filter plate
Protocol: The coupled resins, plus an unconjugated resin for use as a control, were suspended in 16% ethanol, 150 mM NaCl, and 20 mM Tris buffer at pH 7.5 at a 25% v/v ratio (e.g., 25% ethanol, 75% Tris buffer). A Tecan liquid-handling robot was employed to aliquot 200 µL of each slurry into one of eight rows of a 96 well polystyrene filter plate (0.45 µm hydrophilic filters, Whatman catalog number 770-1806). Spinning at 1200 g for 3 min removed the liquid phase, leaving 50 µL of wet resin on the filters. The resins were then equilibrated with the loading buffers listed in Table 6 (K is a coefficient characterizing the strength of protein binding to a particular resin in a particular buffer). […] The resins were loaded by transferring 150 µL from the load plate to the filter plate and then incubating 20 min on a shaking platform to facilitate binding. The filter plate was spun down and the filtrate collected in a 96 well UV plate. The protein concentration in the filtrate, or flow-through, was calculated as (A280-A320)/1.3. The filter plate was then washed with 150 µL of 100 mM acetic acid, followed by 150 µL of 4M guanidine-HCl and 50 mM sodium acetate at pH 4.0. The protein concentration was measured in the new filtrate as described above. […] However, for peptides 750 and 751, the binding was strong in 25 mM MES at pH 6 but weak in 50 mM acetic acid with 0.1 M NaCl at pH 3.0, which can allow an efficient binding-elution process without the need for chaotrops or organic reagents. Flow-through and acetic acid elution samples from column 4 of the plate (loaded with MES pH 6) were analyzed on a gel (Figure 14).

[2] = tested on: BMP-3; assay: Purification of BMP-3 on immobilized finger 1 peptide column, comparison of ligands; type: binding; details: compared with the BMP-2 mutant peptide
Source text: ([…] […]) was used to purify BMP-3 as in Example 1. […] Less of the propeptide fragment eluted than in Example 6.

[3] = 50 mM acetic acid with 0.1 M NaCl at pH 3.0

Substance | binding of BMP 12 by coupled resin ([1]; loading buffers 1-5) | binding of BMP 12 by coupled resin ([1]; 25 mM MES at pH 6) | binding of BMP 12 by coupled resin [1, 3] | other results
Ac-LYVDFSDVGWNDWIVAPPGYHAFYSHGEK [Peptide 747] | high affinity |  |  | 
Ac-RDLGWQDWIIAPEGYAAFYSDGEK [Peptide 748] | high affinity |  |  | 
KELGWDDWIIAPLDYEAYHCEGLC [BMP12 Fing1 WT] |  |  |  | effectiveness of immobilized ligand [2]: less effective than the BMP-2 mutant

The next lines start with results.

binding of BMP 12 by coupled resin ([1]; loading buffers 1-5) | binding of BMP 12 by coupled resin ([1]; 25 mM MES at pH 6) | binding of BMP 12 by coupled resin [1, 3] | Substance | other results
high affinity |  |  | Ac-ELGWDDWIIAPLDYEAYHSEGLK [Peptide 749] | 
 | strong | weak | Ac-SDVGWNDWIVAPPGYHAFYCHGEK [Peptide 750] | 
 | strong | weak | Ac-SDVGWNDWIVAPPGYHAFYSHGEK [Peptide 751] | 
